Patent US8354430B2, “Monohydrochloride salt of 1-[3-[3-(4-chlorophenyl) propoxy]propyl]-piperidine” (priority 2005, dated 2013)

Legend:
Human H1R [1] = target: T1, Human H1R (Homo sapiens, UniProt P35367); assay: Specific [3H]mepyramine binding at recombinant human H1 receptors expressed in HEK293 cells; settings: read-out: Ki or IC50, Human H1R
Human H1R [2] = target: T1, Human H1R; assay: Histamine-induced increase in [35S]GTPγS binding; assay type: biochemical; settings: read-out: Ki or IC50, [35S]GTPγS
mice [3] = assay: Electroshock in mice (maximal electroshock seizure model); assay type: in vivo, mouse; settings: 100 mg/kg, p.o.; test 60 min after dosing
mice [4] = assay: Kainate-induced temporal lobe seizures in mice; assay type: in vivo, mouse
Experimental: Unilateral injection of kainic acid (1 nmol in […]) into the dorsal hippocampus in mice induces a non-convulsive status that results in spontaneous recurrent focal seizures after 2-3 weeks. Seizures (5 to 20 times per hour in quiet mice) are characterized by a behavioral arrest and/or stereotypies, concomitant with spike and poly-spike discharges recorded in the injected hippocampus. All AEDs tested in this model (valproate, carbamazepine, phenytoin, levetiracetam) are without significant effects, except benzodiazepines which transiently suppress seizures. This model reproduces the behavioral, EEG, pharmacological and histological characteristics of mesial temporal lobe epilepsy, a form of epilepsy which is often drug-resistant in humans. After a recovery period, implanted mice (for EEG recording) were injected with kainic acid. They were EEG recorded at least 3 weeks after injection for selection of animals with consistent hippocampal seizure. Then, after a 20 min reference recording period, selected mice received either 1-[3-[3-(4-chlorophenyl)propoxy]propyl]piperidine monohydrochloride (10 or 20 mg/kg, i.p.) or saline and the recording was continued for 60 min. Treatments were given in a counter balanced order (after a one week washout period between two sessions).

cats = assay: Sleep-wake cycle study in cats (EEG/EMG); assay type: in vivo, cat
Experimental: Animals were chronically implanted with cortical and muscle electrodes to record EEG and EMG respectively, to allow monitoring their sleep-wake cycle. After recovery from surgery, animals were housed individually in a sound-proof recorded room maintaining at appropriate ambient temperature on a 12 h light/dark cycle. Polygraphic recordings were performed during 4 days to collect reference qualitative and quantitative data of sleep-wake control in each individual. Then, pharmacological evaluation was performed over 24 h sessions and analyzed by successive 30 sec epochs. Wakefulness and sleep states were identified as previously described for cats [Petitjean et al., Brain Res., 1975, 88: 439-53] and mice [[…] and Bugat, Brain Res., 1974, 69: 315-30]. Polygraphic recordings were started 7 days after surgery. Sleep-wake recording criteria included wakefulness (W), light slow wave sleep (SWS1), deep […]2) and paradoxical sleep (PS). Spectral analysis of EEG was performed by Fast-Fourier Transform in the frequency bands 0.8-2.5 Hz ([delta] slow waves), 8-15 Hz (spindles) and 20-45 Hz ([beta] and [gamma] rapid waves).

mice [5] = assay: Sleep-wake cycle study in mice (EEG/EMG); assay type: in vivo, mouse
Experimental: Animals were chronically implanted with cortical and muscle electrodes to record EEG and EMG respectively, to allow monitoring their sleep-wake cycle. After recovery from surgery, animals were housed individually in a sound-proof recorded room maintaining at appropriate ambient temperature on a 12 h light/dark cycle. Polygraphic recordings were performed during 4 days to collect reference qualitative and quantitative data of sleep-wake control in each individual. Then, pharmacological evaluation was performed over 24 h sessions and analyzed by successive 30 sec epochs. Wakefulness and sleep states were identified as previously described for cats [Petitjean et al., Brain Res., 1975, 88: 439-53] and mice [Valatx and Bugat, Brain Res., 1974, 69: 315-30].
Polygraphic recordings were started 15 days after surgery (5 days recovery plus 10 days acclimation to the recording wires). Sleep-wake recording criteria included wakefulness (W), slow wave sleep (SWS) and paradoxical sleep (PS). Spectral analysis of EEG was performed by Fast-Fourier Transform in the 0.8-2.5 Hz, 8-15 Hz and 30-60 Hz frequency bands.

mice [6] = assay: Scopolamine-induced learning deficit, two-trial object recognition; assay type: in vivo, mouse; settings: i.p., scopolamine 0.3 mg/kg i.p.
Experimental: Lett., 1994, 170, 117-120; Bartolini et al., Biochem. Nehav., 1996, 53, 277-283]. Methods: Mice were allowed to explore a box for 30 min in the presence of two objects. The day after, mice were submitted to two trials spaced by an interval of 60 min. During the first trial (T1), mice were placed in the box containing the two identical objects and the time required by each animal to complete 20 sec of object exploration was determined. Exploration was considered to be directing the nose at a distance closer than 2 cm to the object and/or touching the object. For the second trial (T2), one of the objects presented in the first trial was replaced by and unknown novel object. Mice were placed in the box for 5 min and exploration of each object together with motor activity was determined. The following parameters were measured.

mice [7] = assay: Natural forgetting, two-trial object recognition; assay type: in vivo, mouse
Experimental: Methods: Mice were submitted to the first trial (T1), placed in the box containing two identical objects and the time required by each animal to complete 8 sec of object exploration was determined. Exploration was considered to be directing the nose at a distance closer than 2 cm to the object and/or touching the object. Immediately after the first trial mice were treated with the vehicle or tacrine (0.25 mg/kg, i.p.). […] Mice were placed in the box for 5 min and exploration of each object together with motor activity was determined. The following parameters were measured: […]

mice [8] = assay: Acute toxicity in mouse; assay type: in vivo; settings: for no-effect dose: mouse, in vivo
human H3R [9] = target: T2, human H3R (Homo sapiens, UniProt Q9Y5N1); assay: A23187-evoked [3H]arachidonic acid release from CHO cells expressing human H3R; assay type: cell-based; parameters: expressed in transfected cells; host or cells: CHO cells; settings: 1 μM, human H3R 300-400 fmol/mg protein
human H3R [10] = target: T2, human H3R; assay: [35S]GTPγS specific binding to membranes of CHO cells expressing the human H3R; assay type: biochemical; parameters: expressed in transfected cells; host or cells: CHO cells

T2 sequence (Q9Y5N1 whole entry): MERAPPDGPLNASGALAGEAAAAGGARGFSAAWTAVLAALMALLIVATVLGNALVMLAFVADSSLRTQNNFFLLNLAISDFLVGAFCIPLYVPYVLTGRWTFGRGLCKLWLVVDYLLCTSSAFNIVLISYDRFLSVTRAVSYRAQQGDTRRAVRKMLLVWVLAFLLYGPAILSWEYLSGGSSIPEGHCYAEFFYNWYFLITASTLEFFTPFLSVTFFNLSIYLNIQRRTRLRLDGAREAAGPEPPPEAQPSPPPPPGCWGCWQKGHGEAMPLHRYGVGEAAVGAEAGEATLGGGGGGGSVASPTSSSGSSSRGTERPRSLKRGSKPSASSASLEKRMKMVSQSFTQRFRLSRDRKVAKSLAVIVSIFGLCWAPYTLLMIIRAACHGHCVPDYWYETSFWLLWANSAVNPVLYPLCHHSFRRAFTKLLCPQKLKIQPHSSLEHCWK
T1 sequence (P35367 whole entry): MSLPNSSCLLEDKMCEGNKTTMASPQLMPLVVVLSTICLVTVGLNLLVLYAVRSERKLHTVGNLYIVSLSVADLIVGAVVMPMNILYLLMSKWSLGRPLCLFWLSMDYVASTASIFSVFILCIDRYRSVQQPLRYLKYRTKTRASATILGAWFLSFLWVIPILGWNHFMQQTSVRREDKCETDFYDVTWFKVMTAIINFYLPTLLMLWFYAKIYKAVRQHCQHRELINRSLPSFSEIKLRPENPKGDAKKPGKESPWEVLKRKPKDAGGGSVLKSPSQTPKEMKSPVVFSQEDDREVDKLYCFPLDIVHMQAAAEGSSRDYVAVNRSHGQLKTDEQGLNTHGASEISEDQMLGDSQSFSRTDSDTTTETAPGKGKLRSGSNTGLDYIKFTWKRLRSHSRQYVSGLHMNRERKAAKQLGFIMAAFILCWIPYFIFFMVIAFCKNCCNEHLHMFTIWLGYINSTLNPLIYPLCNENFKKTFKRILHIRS

SMILES: Cl.Clc1ccc(CCCOCCCN2CCCCC2)cc1 [1-[3-[3-(4-chlorophenyl)propoxy]propyl]-piperidine monohydrochloride]
- Ki (Human H1R [1]): 1140 nM
- IC50 (Human H1R [2]): > 10000 nM
- protection in the maximal electroshock seizure model (mice [3]): complete protection
- cumulated duration and number of hippocampal discharges (mice [4]; 10 mg/kg, i.p., first 40 min after administration): reduced
- cumulated duration of hippocampal discharges (mice [4]; 20 mg/kg i.p., at 60 min): also reduced
- time animals almost permanently wakeful (cats; 10 mg/kg oral): 6 to 12 h
- increase in W duration (cats; 10 mg/kg oral, 6 h recording period): 79%
- animal behavior after treatment (cats; oral): No major change in the animal behavior
- awakening (W) at the expense of SWS and PS (cats; oral, 5 or 10 mg/kg): dose-dependent increase in awakening
- increase in W duration (mice [5]; 10 mg/kg oral): 29%
- increase in W duration (mice [5]; 20 mg/kg oral): 69%
- behavioral change in treated mice (mice [5]; oral): No behavioral change
- awakening (W) at the expense of SWS and PS (mice [5]; oral, 2.5, 5, 10 or 20 mg/kg): dose-dependent increase in awakening
- reversal of scopolamine-induced amnesia (mice [6]; 5 mg/kg): a reversal trend appeared without being significant
- reversal of scopolamine-induced amnesia (mice [6]; 15 mg/kg): significantly (p=0.0056) reversed
- natural forgetting, association with tacrine (mice [7]; 15 mg/kg i.p. together with tacrine 0.25 mg/kg i.p.): without change in the tacrine effect
- natural forgetting (mice [7]; 15 mg/kg, i.p., 30 min before T1): significantly reduced
- maximum non lethal dose (mice [8]; mice): 100 mg/kg
- minimum lethal dose (mice [8]; mice, i.v.): 10 mg/kg
- minimum lethal dose (mice [8]; mice, p.o.): 150 mg/kg
- no-effect dose (mice [8]; iv): > 5 mg/kg
- no-effect dose (mice [8]; po): > 30 mg/kg
- solubility (physchem; pH 4.5, aqueous buffer): > 1000 mg/mL
- solubility (physchem; pH 7.4, aqueous buffer): > 1000 mg/mL
- solubility (physchem; water): > 1000 mg/mL
- reduction of the A23187-evoked [3H]AA release (human H3R [9]): 20%
- decrease in [35S]GTPγS specific binding (human H3R [10]; 10 nM, receptor level 1000-1100 fmol/mg protein): 22%
- maximal decrease of specific binding of [35S]GTPγS (human H3R [10]; receptor level 410 fmol/mg protein): 25%
